The values that follow are results of earlier work, collected in patent US20150196506A1, “CHEWING GUM FORMULATIONS COMPRISING DAPOXETINE AND TADALAFIL” (Sanovell Ilac Sanayi Ve Ticaret Anonim Sirketi, priority 2012, published 2015).

The conditions of data set [1]: similarly poorly dissolved in gastric juice.
The conditions of data set [2]: following oral administration.

Regarding `CN1CC(=O)N2[C@H](c3ccc4c(c3)OCO4)c3[nH]c4ccccc4c3C[C@@H]2C1=O` [Tadalafil, (6R-trans)-6-(1,3-benzodioxol-5-yl)-2,3,6,7,12,12a-hexahydro-2-methyl-pyrazino [1′,2′:1,6] pyrido[3,4-b]indole-1,4-dione], the solubility in water entry in data set [1] was “poorly soluble in water”.
In the case of `CN(C)[C@@H](CCOc1cccc2ccccc12)c1ccccc1` [dapoxetine], in data set [2], the “binding to plasma proteins” value is listed as “almost completely”.
